This passage reports IC50 results from patent US20250090540A1, “PI3K-ALPHA INHIBITORS AND METHODS OF USE THEREOF” (Relay Therapeutics, Inc., priority 2021, published 2025).

For one experiment, the target named is H1047R PIK3CA enzyme (Homo sapiens, UniProt P42336, H1047R). Kind of experiment: ADP-Glo Biochemical PIK3CA Kinase Assay.
Another experiment is described as follows: cells. As to conditions: Homo sapiens, MCF-10A, read-out: MCF10A I50.
Where [1] appears, read: ADP-Glo biochemical PIK3CA kinase assay.

Like-named read-outs stand apart in the source and are kept apart here.

H1047R PIK3CA enzyme, sequence (P42336 whole entry H1047R): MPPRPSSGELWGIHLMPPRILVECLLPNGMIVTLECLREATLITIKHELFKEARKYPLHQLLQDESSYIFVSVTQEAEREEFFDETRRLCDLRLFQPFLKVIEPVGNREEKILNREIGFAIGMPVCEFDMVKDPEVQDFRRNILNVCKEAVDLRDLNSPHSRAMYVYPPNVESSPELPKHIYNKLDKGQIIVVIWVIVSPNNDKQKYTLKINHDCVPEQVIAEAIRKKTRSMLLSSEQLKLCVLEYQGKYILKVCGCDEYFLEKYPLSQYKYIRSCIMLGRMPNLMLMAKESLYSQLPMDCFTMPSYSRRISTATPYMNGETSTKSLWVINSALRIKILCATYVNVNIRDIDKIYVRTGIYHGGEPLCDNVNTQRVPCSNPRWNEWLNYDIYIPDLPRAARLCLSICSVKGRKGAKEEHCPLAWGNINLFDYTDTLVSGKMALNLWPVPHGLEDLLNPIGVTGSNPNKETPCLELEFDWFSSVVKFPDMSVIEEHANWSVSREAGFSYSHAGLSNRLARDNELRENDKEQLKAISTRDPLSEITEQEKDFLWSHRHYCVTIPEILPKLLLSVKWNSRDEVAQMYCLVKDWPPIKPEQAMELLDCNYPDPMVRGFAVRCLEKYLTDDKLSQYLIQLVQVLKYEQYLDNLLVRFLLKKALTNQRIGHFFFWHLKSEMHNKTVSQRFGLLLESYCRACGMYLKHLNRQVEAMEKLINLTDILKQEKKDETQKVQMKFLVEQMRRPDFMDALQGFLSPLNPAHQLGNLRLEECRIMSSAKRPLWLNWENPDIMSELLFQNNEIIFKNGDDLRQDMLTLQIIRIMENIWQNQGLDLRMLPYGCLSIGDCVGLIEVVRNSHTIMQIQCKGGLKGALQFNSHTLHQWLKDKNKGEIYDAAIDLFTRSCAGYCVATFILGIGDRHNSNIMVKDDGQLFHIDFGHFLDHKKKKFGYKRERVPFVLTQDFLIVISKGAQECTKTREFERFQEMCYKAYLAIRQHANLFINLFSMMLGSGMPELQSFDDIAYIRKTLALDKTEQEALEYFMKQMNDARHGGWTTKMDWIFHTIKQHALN
H1047R PIK3CA enzyme, sequence (P27986 whole entry partner): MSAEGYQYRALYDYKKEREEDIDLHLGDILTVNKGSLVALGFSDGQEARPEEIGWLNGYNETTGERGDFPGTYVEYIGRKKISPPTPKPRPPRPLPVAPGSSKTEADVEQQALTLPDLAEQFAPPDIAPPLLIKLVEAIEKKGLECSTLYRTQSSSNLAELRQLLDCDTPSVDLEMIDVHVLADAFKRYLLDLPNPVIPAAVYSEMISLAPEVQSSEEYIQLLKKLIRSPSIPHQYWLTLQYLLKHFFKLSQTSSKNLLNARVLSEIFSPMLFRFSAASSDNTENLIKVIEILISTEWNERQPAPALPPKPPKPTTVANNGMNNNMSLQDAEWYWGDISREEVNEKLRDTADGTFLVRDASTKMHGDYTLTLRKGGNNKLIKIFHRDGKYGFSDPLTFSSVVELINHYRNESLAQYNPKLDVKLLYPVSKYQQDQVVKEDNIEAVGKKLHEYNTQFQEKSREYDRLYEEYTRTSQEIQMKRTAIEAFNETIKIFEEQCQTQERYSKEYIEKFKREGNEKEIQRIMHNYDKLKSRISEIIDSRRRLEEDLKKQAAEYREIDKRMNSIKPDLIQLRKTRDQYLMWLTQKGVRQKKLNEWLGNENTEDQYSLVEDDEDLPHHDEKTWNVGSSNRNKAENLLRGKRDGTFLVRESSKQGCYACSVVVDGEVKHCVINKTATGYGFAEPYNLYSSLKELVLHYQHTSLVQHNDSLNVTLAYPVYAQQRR

For `CNC(=O)c1cnc(Nc2cccc3ccn(C)c23)c(NC(=O)c2csc3ccccc23)c1` [I-680], the figures for the IC50 at H1047R PIK3CA enzyme (setting [1]) and in “cells” were 1000 to 10000 nM and 10000 to 36000 nM, respectively.

As for `Cc1ccccc1Nc1ncc(C(=O)N[C@H]2C[C@H](C(=O)O)C2)cc1NC(=O)c1csc2ccccc12` [I-685], the IC50 against H1047R PIK3CA enzyme (setting [1]) is 500 to 1000 nM; in “cells”, 10000 to 36000 nM.

In the case of `CC(NC(=O)c1cnc(N)c(NC(=O)c2csc3ccccc23)c1)c1nnc2ccccn12` (stereo not drawn) [I-691], the IC50 at H1047R PIK3CA enzyme (setting [1]) lay in the range of 100 to 500 nM; in the experiment “cells” it was 5000 to 10000 nM.

With `CNC(=O)[C@H]1C[C@@H](NC(=O)c2cnc(Nc3ccccc3C)c(NC(=O)c3csc4ccccc34)c2)C1` [I-692], the IC50 fell in the range of 100 to 500 nM at H1047R PIK3CA enzyme (setting [1]) and 10000 to 36000 nM in “cells”.

`Cc1ccccc1Nc1ncc(C(=O)NCc2cccnc2)cc1NC(=O)c1cc(F)cc(C(F)(F)F)c1` [I-700]: the IC50 is 100 to 500 nM on H1047R PIK3CA enzyme (setting [1]) and 10000 to 36000 nM in the experiment “cells”.

For the compound `CNC(=O)c1cnc(NC2CCOc3ccc(F)cc32)c(NC(=O)c2csc3ccccc23)c1` (stereo not drawn) [I-745], the IC50 on H1047R PIK3CA enzyme (setting [1]) is 100 to 500 nM; in “cells”, 5000 to 10000 nM.

In the case of `Cc1ccccc1Nc1ncc(C(=O)NCC2(C#N)CC2)cc1NC(=O)c1cc(F)cc(C(F)(F)F)c1` [I-750], the IC50 against H1047R PIK3CA enzyme (setting [1]) is 100 to 500 nM; in the experiment “cells”, 5000 to 10000 nM.

Regarding `CNC(=O)c1cnc(Nc2ccccc2C)c(NC(=O)c2cc(C)nc(C(F)(F)F)c2)c1` [I-765], the results for the IC50 on H1047R PIK3CA enzyme (setting [1]) and in the experiment “cells” were 100 to 500 nM and 1000 to 5000 nM, respectively.

With `CNC(=O)c1cnc(Nn2nccc2C(F)(F)F)c(NC(=O)c2csc3ccccc23)c1` [I-772], the IC50 is at most 100 nM against H1047R PIK3CA enzyme (setting [1]) and 1000 to 5000 nM in the experiment “cells”.

As for `CNC(=O)c1cc(F)c(Nc2ccccc2C)c(NC(=O)c2csc3ccccc23)c1` [I-773], the IC50 was at most 100 nM against H1047R PIK3CA enzyme (setting [1]) and below 1000 nM in the experiment “cells”.

On to `Cc1ccccc1Nc1c(F)cc(C(=O)NC2CS(=O)(=O)C2)cc1NC(=O)c1csc2ccccc12` [I-774], for which the IC50 was at most 100 nM against H1047R PIK3CA enzyme (setting [1]) and 10000 to 36000 nM in “cells”.

On to `CC(C)(O)c1cnc(Nc2cc(F)ccc2Cl)c(NC(=O)c2nsc3ccccc23)c1` [I-783], for which the IC50 at H1047R PIK3CA enzyme (setting [1]) was in the range of 100 to 500 nM; in “cells”, 5000 to 10000 nM.

Turning to `CNC(=O)c1ccc(Nc2cc(F)ccc2Cl)c(NC(=O)c2cc(F)cc(C(F)(F)F)c2)n1` [I-802], the IC50 against H1047R PIK3CA enzyme lay within 100 to 500 nM; in “cells”, 1000 to 5000 nM.

On to `CNC(=O)c1cnc(Nc2cc(CO)ccc2Cl)c(NC(=O)c2cc(F)cc(C(F)(F)F)c2)c1` [I-809], for which the IC50 against H1047R PIK3CA enzyme was in the range of 100 to 500 nM; in the experiment “cells” it was 1000 to 5000 nM.

On to `Cc1ccccc1Nc1nc2ccccc2cc1NC(=O)N1CC(O)c2ccccc21` (stereo not drawn) [I-828, 3-hydroxy-N-(2-(o-tolylamino)quinolin-3-yl)indoline-1-carboxamide], for which the IC50 at H1047R PIK3CA enzyme fell in the range of 500 to 1000 nM; in “cells”, 5000 to 10000 nM.
